Reference: patent US7807422B2, “Production of flavonoids by recombinant microorganisms” (The Research Foundation of State University of New York, priority 2004, dated 2010)

Tested on: flavanone biosynthesis in recombinant yeast strain INV-4G
Assay: Eriodictyol production from caffeic acid by INV-4G in the presence of luteolin
Assay type: cell-based, S. cerevisiae
Settings: varying luteolin concentrations (1, 3, 10 mg/L)
Source text: Heterologous expression and fermentation. In order to assemble the two different flavone biosynthetic pathways, recombinant INVSc1 carrying plasmid Ycc4c181G was transformed with YC-FSI, YC-FSII or YC-FSII+CPR1 separately, yielding recombinant strains INV-4G+FSI, INV-4G+FSII, and INV-4G+FSII+CPR1. Yeast colonies harboring both plasmids were selected upon growth on SC agar plates lacking leucine and tryptophan (SC-Leu-Trp-). For flavone fermentation purposes, an individual recombinant yeast colony was grown overnight in 10-mL liquid SC-Leu-Trp-containing glucose at 30° C. with shaking. The following day, a portion of this culture was used to seed the main culture of SC-Leu-Trp-containing galactose and raffinose or MA-Leu-Trp-containing galactose and acetate to an Ab600 of 0.4. 0.5 mM of phenylpropanoid acid (cinnamic acid, p-coumaric acid, caffeic acid, ferulic acid) was then added to the main culture, and incubation was carried out at 30° C. with horizontal shaking for a maximum of 92 hours.
The efficiency of eriodictyol production from caffeic acid by INV-4G in the presence of varying luteolin concentrations was also tested.

O=c1cc(-c2ccc(O)c(O)c2)oc2cc(O)cc(O)c12 [luteolin]
regulation (feedback inhibition) of flavanone biosynthesis: did not regulate
